Reference: patent publication US20170051034A1 (Novo Nordisk A/S, priority 2010, published 2017)
Blank lines part the entries; values can stand above or below the compound they belong to. Numbered stars: 1 amine (or outer) side, 2 acyl side, 3 side chain; on linkers, the order of the positions; unused ones are H or OH. Square brackets hold non-standard residues; d marks the D form. Side chains are listed from the residue outwards. Peptide text beside a SMILES is read from it. * marks the point of attachment. Palmitoyl(16-(5-tetrazolyl)) = O=C(CCCCCCCCCCCCCCCc1nnn[nH]1)*; C18 diacid = O=C(O)CCCCCCCCCCCCCCCCC(=O)*; C16 diacid = O=C(O)CCCCCCCCCCCCCCC(=O)*; γGlu = O=C(O)[C@H](CCC(=O)[*:2])N[*:1]; Orn = NCCC[C@H](N)C(=O)O; AEEA = NCCOCCOCC(=O)O

Biological target: glucagon receptor (Homo sapiens, UniProt P47871)
Sequence (P47871 26-477): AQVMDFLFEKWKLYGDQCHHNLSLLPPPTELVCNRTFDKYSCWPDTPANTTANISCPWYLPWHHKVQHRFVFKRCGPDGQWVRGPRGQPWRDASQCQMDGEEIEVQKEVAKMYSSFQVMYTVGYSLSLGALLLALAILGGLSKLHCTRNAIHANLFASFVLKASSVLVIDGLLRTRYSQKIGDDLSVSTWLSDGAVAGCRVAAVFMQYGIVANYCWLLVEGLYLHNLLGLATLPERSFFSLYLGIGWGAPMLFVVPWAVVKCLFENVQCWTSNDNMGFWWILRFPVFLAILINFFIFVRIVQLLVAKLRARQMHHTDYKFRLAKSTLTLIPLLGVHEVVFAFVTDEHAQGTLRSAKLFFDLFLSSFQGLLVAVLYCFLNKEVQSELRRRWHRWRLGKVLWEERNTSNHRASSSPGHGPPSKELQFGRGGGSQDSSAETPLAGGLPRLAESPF
Test: cell-based
Procedure: The cells (14000 per well) were incubated (37° C., 5% CO2) overnight in 384-well plates. Next day the cells were loaded with a calcium responsive dye that only distributed into the cytoplasm. Probenecid, an inhibitor of the organic anion transporter, was added to prevent the dye from leaving the cell. A PDE inhibitor was added to prevent formatted cAMP from being degraded. […] End point data were collected after 6 minutes. An increase in intracellular cAMP was proportional to an increased in calcium concentrations in the cytoplasm. […] EC50-values were calculated in Prism5.

SMILES: CC(C)C[C@H](NC(=O)[C@H](Cc1ccc(O)cc1)NC(=O)[C@H](CCCCN)NC(=O)[C@H](CO)NC(=O)[C@H](Cc1ccc(O)cc1)NC(=O)[C@H](CC(=O)O)NC(=O)[C@H](CO)NC(=O)[C@@H](NC(=O)[C@H](Cc1ccccc1)NC(=O)[C@@H](NC(=O)CNC(=O)[C@H](CCC(N)=O)NC(=O)[C@H](CO)NC(=O)[C@@H](N)Cc1c[nH]cn1)[C@@H](C)O)[C@@H](C)O)C(=O)N[C@@H](CC(=O)O)C(=O)N[C@@H](CO)C(=O)N[C@@H](CCCCN)C(=O)N[C@@H](CCCCN)C(=O)N[C@@H](C)C(=O)N[C@@H](CCC(N)=O)C(=O)N[C@@H](CCC(=O)O)C(=O)N[C@@H](Cc1ccccc1)C(=O)N[C@H](C(=O)N[C@@H](CCCCNC(=O)COCCOCCNC(=O)COCCOCCNC(=O)CC[C@H](NC(=O)CCCCCCCCCCCCCCCc1nnn[nH]1)C(=O)O)C(=O)N[C@@H](Cc1c[nH]c2ccccc12)C(=O)N[C@@H](CC(C)C)C(=O)N[C@@H](CC(C)C)C(=O)N[C@@H](CO)C(=O)N[C@H](C(=O)O)[C@@H](C)O)C(C)C [Example 70, N^ε24-[2-[2-[2-[[2-[2-[2-[[(4S)-4-carboxy-4-[16-(1H-tetrazol-5-yl)hexadecanoylamino]butanoyl]amino]ethoxy]ethoxy]acetyl]amino]ethoxy]ethoxy]acetyl]-[Lys^17,Lys^18,Glu^21,Lys^24,Leu^27,Ser^28]-Glucagon] (H-HSQGTFTSDYSKYLDSKKAQEFVK([AEEA-AEEA-γGlu-Palmitoyl(16-(5-tetrazolyl))])WLLST-OH)
- EC50: 0.134 nM

SMILES: CC(C)C[C@H](NC(=O)[C@H](Cc1ccc(O)cc1)NC(=O)[C@H](CCCCN)NC(=O)[C@H](CO)NC(=O)[C@H](Cc1ccc(O)cc1)NC(=O)[C@H](CC(=O)O)NC(=O)[C@H](CO)NC(=O)[C@@H](NC(=O)[C@H](Cc1ccccc1)NC(=O)[C@@H](NC(=O)CNC(=O)[C@H](CCC(N)=O)NC(=O)[C@H](CO)NC(=O)[C@@H](N)Cc1c[nH]cn1)[C@@H](C)O)[C@@H](C)O)C(=O)N[C@@H](CC(=O)O)C(=O)N[C@@H](CO)C(=O)N[C@@H](CCCCN)C(=O)N[C@@H](CCCCN)C(=O)N[C@@H](C)C(=O)N[C@@H](CCC(N)=O)C(=O)N[C@@H](CCC(=O)O)C(=O)N[C@@H](Cc1ccccc1)C(=O)N[C@H](C(=O)N[C@@H](CCCCNC(=O)COCCOCCNC(=O)COCCOCCNC(=O)CC[C@H](NC(=O)CCCCCCCCCCCCCCCCC(=O)O)C(=O)O)C(=O)N[C@@H](Cc1c[nH]c2ccccc12)C(=O)N[C@@H](CC(C)C)C(=O)N[C@@H](CC(C)C)C(=O)N[C@@H](CC(=O)O)C(=O)N[C@H](C(=O)O)[C@@H](C)O)C(C)C [Example 67, N^ε24-[2-[2-[2-[[2-[2-[2-[[(4S)-4-carboxy-4-(17-carboxyheptadecanoylamino)butanoyl]amino]ethoxy]ethoxy]acetyl]amino]ethoxy]ethoxy]acetyl]-[Lys^17,Lys^18,Glu^21,Lys^24,Leu^27,Asp^28]-Glucagon] (H-HSQGTFTSDYSKYLDSKKAQEFVK([AEEA-AEEA-γGlu-C18 diacid])WLLDT-OH)
- EC50: 0.051 nM

SMILES: CC(C)C[C@H](NC(=O)[C@H](Cc1ccc(O)cc1)NC(=O)[C@H](CCCCN)NC(=O)[C@H](CO)NC(=O)[C@H](Cc1ccc(O)cc1)NC(=O)[C@H](CC(=O)O)NC(=O)[C@H](CO)NC(=O)[C@@H](NC(=O)[C@H](Cc1ccccc1)NC(=O)[C@@H](NC(=O)CNC(=O)[C@H](CCC(N)=O)NC(=O)[C@H](CO)NC(=O)[C@@H](N)Cc1c[nH]cn1)[C@@H](C)O)[C@@H](C)O)C(=O)N[C@@H](CC(=O)O)C(=O)N[C@@H](CO)C(=O)N[C@@H](CCCCN)C(=O)N[C@@H](CCCCN)C(=O)N[C@@H](C)C(=O)N[C@@H](CCC(N)=O)C(=O)N[C@@H](CCC(=O)O)C(=O)N[C@@H](Cc1ccccc1)C(=O)N[C@H](C(=O)N[C@@H](CCCNC(=O)COCCOCCNC(=O)COCCOCCNC(=O)CC[C@H](NC(=O)CCCCCCCCCCCCCCCCC(=O)O)C(=O)O)C(=O)N[C@@H](Cc1c[nH]c2ccccc12)C(=O)N[C@@H](CC(C)C)C(=O)N[C@@H](CC(C)C)C(=O)N[C@@H](CO)C(=O)N[C@H](C(=O)O)[C@@H](C)O)C(C)C [Example 73, N^ε24-[2-[2-[2-[[2-[2-[2-[[(4S)-4-carboxy-4-(17-carboxyheptadecanoylamino)butanoyl]amino]ethoxy]ethoxy]acetyl]amino]ethoxy]ethoxy]acetyl]-[Lys^17,Lys^18,Glu^21,Orn^24,Leu^27,Ser^28]-Glucagon] (H-HSQGTFTSDYSKYLDSKKAQEFV[Orn]([AEEA-AEEA-γGlu-C18 diacid])WLLST-OH)
- EC50: 0.036 nM

- EC50: 0.003 nM
SMILES: CC(C)C[C@H](NC(=O)[C@H](Cc1ccc(O)cc1)NC(=O)[C@H](CCCCN)NC(=O)[C@H](CO)NC(=O)[C@H](Cc1ccc(O)cc1)NC(=O)[C@H](CC(=O)O)NC(=O)[C@H](CO)NC(=O)[C@@H](NC(=O)[C@H](Cc1ccccc1)NC(=O)[C@@H](NC(=O)CNC(=O)[C@H](CCC(N)=O)NC(=O)[C@H](CO)NC(=O)[C@@H](N)Cc1c[nH]cn1)[C@@H](C)O)[C@@H](C)O)C(=O)N[C@@H](CC(=O)O)C(=O)N[C@@H](CO)C(=O)N[C@@H](CCCCN)C(=O)N[C@@H](CCCNC(=N)N)C(=O)N[C@@H](C)C(=O)N[C@@H](CCC(N)=O)C(=O)N[C@@H](CCC(=O)O)C(=O)N[C@@H](Cc1ccccc1)C(=O)N[C@H](C(=O)N[C@@H](CCC(N)=O)C(=O)N[C@@H](Cc1c[nH]c2ccccc12)C(=O)N[C@@H](CC(C)C)C(=O)N[C@@H](CC(C)C)C(=O)N[C@@H](CCCCNC(=O)COCCOCCNC(=O)COCCOCCNC(=O)CC[C@H](NC(=O)CCCCCCCCCCCCCCCCC(=O)O)C(=O)O)C(=O)N[C@H](C(N)=O)[C@@H](C)O)C(C)C [Example 43, N^ε28 ([2-[2-[2-[[2-[2-[2-[[(4S)-5-hydroxy-4-[(18-hydroxy-18-oxooctadecanoyl)amino]-5-oxopentanoyl]amino]ethoxy]ethoxy]acetyl]amino]ethoxy]ethoxy]acetyl]) [Lys^17, Glu^21 Leu^27, Lys^28] Glucagon peptide amide] (H-HSQGTFTSDYSKYLDSKRAQEFVQWLLK([AEEA-AEEA-γGlu-C18 diacid])T-NH2; N-terminus assumed)

SMILES: CC(C)C[C@H](NC(=O)[C@H](Cc1ccc(O)cc1)NC(=O)[C@H](CCCCN)NC(=O)[C@H](CO)NC(=O)[C@H](Cc1ccc(O)cc1)NC(=O)[C@H](CC(=O)O)NC(=O)[C@H](CO)NC(=O)[C@@H](NC(=O)[C@H](Cc1ccccc1)NC(=O)[C@@H](NC(=O)CNC(=O)[C@H](CCC(N)=O)NC(=O)[C@H](CO)NC(=O)[C@@H](N)Cc1c[nH]cn1)[C@@H](C)O)[C@@H](C)O)C(=O)N[C@@H](CC(=O)O)C(=O)N[C@@H](CO)C(=O)N[C@@H](CCCCN)C(=O)N[C@@H](CCCCN)C(=O)N[C@@H](C)C(=O)N[C@@H](CCC(N)=O)C(=O)N[C@@H](CCC(=O)O)C(=O)N[C@@H](Cc1ccccc1)C(=O)N[C@H](C(=O)N[C@@H](CCCCNC(=O)COCCOCCNC(=O)COCCOCCNC(=O)[C@H](CCC(=O)O)NC(=O)CCCCCCCCCCCCCCCCC(=O)O)C(=O)N[C@@H](Cc1c[nH]c2ccccc12)C(=O)N[C@@H](CC(C)C)C(=O)N[C@@H](CC(C)C)C(=O)N[C@@H](CO)C(=O)N[C@H](C(=O)O)[C@@H](C)O)C(C)C [Example 72, N^ε24-[2-[2-[2-[[2-[2-[2-[[(2S)-4-carboxy-2-(17-carboxyheptadecanoylamino)butanoyl]amino]ethoxy]ethoxy]acetyl]amino]ethoxy]ethoxy]acetyl]-[Lys17,Lys18,Glu21,Lys24,Leu27,Ser28]-Glucagon] (H-HSQGTFTSDYSKYLDSKKAQEFVK([AEEA-AEEA-Glu-C18 diacid])WLLST-OH)
- EC50: 0.057 nM

SMILES: CC(C)C[C@H](NC(=O)[C@H](Cc1ccc(O)cc1)NC(=O)[C@H](CCCCN)NC(=O)[C@H](CO)NC(=O)[C@H](Cc1ccc(O)cc1)NC(=O)[C@H](CC(=O)O)NC(=O)[C@H](CO)NC(=O)[C@@H](NC(=O)[C@H](Cc1ccccc1)NC(=O)[C@@H](NC(=O)CNC(=O)[C@H](CCC(N)=O)NC(=O)[C@H](CO)NC(=O)[C@@H](N)Cc1c[nH]cn1)[C@@H](C)O)[C@@H](C)O)C(=O)N[C@@H](CC(=O)O)C(=O)N[C@@H](CO)C(=O)N[C@@H](CCCCN)C(=O)N[C@@H](CCCCN)C(=O)N[C@@H](C)C(=O)N[C@@H](CCC(N)=O)C(=O)N[C@@H](CCC(=O)O)C(=O)N[C@@H](Cc1ccccc1)C(=O)N[C@H](C(=O)N[C@@H](CCCCNC(=O)COCCOCCNC(=O)CC[C@H](NC(=O)CCCCCCCCCCCCCCCCC(=O)O)C(=O)O)C(=O)N[C@@H](Cc1c[nH]c2ccccc12)C(=O)N[C@@H](CC(C)C)C(=O)N[C@@H](CC(C)C)C(=O)N[C@@H](CO)C(=O)N[C@H](C(=O)O)[C@@H](C)O)C(C)C [Example 71, N^ε24-[2-[2-[2-[[(4S)-4-carboxy-4-(17-carboxyheptadecanoylamino)butanoyl]amino]ethoxy]ethoxy]acetyl]-[Lys^17,Lys^18,Glu^21,Lys^24,Leu^27,Ser^28]-Glucagon] (H-HSQGTFTSDYSKYLDSKKAQEFVK([AEEA-γGlu-C18 diacid])WLLST-OH)
- EC50: 0.032 nM

SMILES: CC(C)C[C@H](NC(=O)[C@H](Cc1ccc(O)cc1)NC(=O)[C@H](CCCCN)NC(=O)[C@H](CO)NC(=O)[C@H](Cc1ccc(O)cc1)NC(=O)[C@H](CC(=O)O)NC(=O)[C@H](CO)NC(=O)[C@@H](NC(=O)[C@H](Cc1ccccc1)NC(=O)[C@@H](NC(=O)CNC(=O)[C@H](CCC(N)=O)NC(=O)[C@H](CO)NC(=O)[C@@H](N)Cc1c[nH]cn1)[C@@H](C)O)[C@@H](C)O)C(=O)N[C@@H](CC(=O)O)C(=O)N[C@@H](CO)C(=O)N[C@@H](CCCCN)C(=O)N[C@@H](CCCCN)C(=O)N[C@@H](C)C(=O)N[C@@H](CCC(N)=O)C(=O)N[C@@H](CCC(=O)O)C(=O)N[C@@H](Cc1ccccc1)C(=O)N[C@H](C(=O)N[C@@H](CCCCNC(=O)COCCOCCNC(=O)COCCOCCNC(=O)CC[C@H](NC(=O)CCCCCCCCCCCCCCC(=O)O)C(=O)O)C(=O)N[C@@H](Cc1c[nH]c2ccccc12)C(=O)N[C@@H](CC(C)C)C(=O)N[C@@H](CC(C)C)C(=O)N[C@@H](CO)C(=O)N[C@H](C(=O)O)[C@@H](C)O)C(C)C [Example 69, N^ε24-[2-[2-[2-[[2-[2-[2-[[(4S)-4-carboxy-4-(15-carboxypentadecanoylamino)butanoyl]amino]ethoxy]ethoxy]acetyl]amino]ethoxy]ethoxy]acetyl]-[Lys^17,Lys^18,Glu^21,Lys^24,Leu^27,Ser^28]-Glucagon] (H-HSQGTFTSDYSKYLDSKKAQEFVK([AEEA-AEEA-γGlu-C16 diacid])WLLST-OH)
- EC50: 0.006 nM
